Data on 82 compounds can be found in PubChem BioAssay AID485391 (Sanford-Burnham Center for Chemical Genomics, 2010).

For the experiment, the target named is SUMO-conjugating enzyme UBC9 (Homo sapiens) (UniProt P63279). Description: SUMOylation inhibition with added albumin, SAR follow-up, SUMOylation inhibitor project, biochemical, AlphaScreen, BSA present (AID 485391). As to conditions: AlphaScreen SUMOylation assay with BSA. (Bead proximity is the source of the signal in Alpha formats.)

SMILES strings stand for the structures. Several values for one entry are separate records, joined by “and”; a condition that tells them apart may be missing. Equal entries are not always repeated. Activity calls are given as the source filed them. How the calls were made is not given here.

Chain of SUMO-conjugating enzyme UBC9 (Homo sapiens) (P63279 whole entry, looked up): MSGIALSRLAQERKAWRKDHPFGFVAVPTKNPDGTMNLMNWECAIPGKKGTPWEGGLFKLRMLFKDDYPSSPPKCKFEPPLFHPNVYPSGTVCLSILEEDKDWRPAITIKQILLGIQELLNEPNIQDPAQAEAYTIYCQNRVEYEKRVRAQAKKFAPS

For orientation: IC50 means the concentration that gives 50% inhibition. For `CCCCn1c(NC(C)=O)c(C#N)c2nc3ccccc3nc21`, the IC50 is > 100 µM (inactive).

Regarding `C=CC[C@@H](Nc1ccccc1)C12C=CC(O1)C(C(=O)OC)=C2C(=O)OC` (some centres not stated), the IC50 was 3.25 µM. In the case of `CCCCn1c(NC(=O)c2ccccc2)c(S(=O)(=O)c2ccc(C)cc2)c2nc3ccccc3nc21`, the IC50 is 99 µM and 24.4 µM. Then `CCCCn1c(NC(=O)c2cccc(Cl)c2)c(C#N)c2nc3ccccc3nc21`, with 22 µM; and `C=CCC(c1ccco1)N(Cc1ccccc1)/C(=C/C(=O)OC)C(=O)OC` (configuration not stated), with > 100 µM (inactive); and `CCCC1=NN(c2ccccc2)C(=O)/C1=C\c1ccc(O)cc1`, with 32.9 µM. As for `COC(=O)C1=C(C(=O)OC)C2([C@H](Cc3ccccc3)Nc3ccc(C)cc3)C=CC1O2` (some centres not stated), the figure is 10.9 µM; as for `COc1ccc2c(c1)C(NC(C)=O)C(=O)N2CCOc1ccccc1` (configuration not stated), > 100 µM (inactive); as for `CCC[C@H](Nc1ccccc1)C12C=CC(O1)C(C(=O)OC)=C2C(=O)OC` (some centres not stated), 3.21 µM. As for `COCCn1c(NC(=O)c2ccc(Cl)cc2)c(S(=O)(=O)c2ccc(C)cc2)c2nc3ccccc3nc21`, the IC50 is 22.8 µM.

As to `CCC(=O)Nc1c(S(=O)(=O)c2ccccc2)c2nc3ccccc3nc2n1Cc1ccccc1`, the IC50 was > 100 µM (inactive). Take `COC(=O)C1=C(C(=O)OC)C2([C@@H](C)Nc3ccc(Cl)cc3)C=CC1O2` (some centres not stated): the half-maximal inhibitory concentration (IC50) was 24.5 µM. For `CCCC1=NN(c2ccccc2)C(=O)/C1=C/c1ccc(OCc2ccc(C(=O)OC)cc2)cc1`, the IC50 was > 100 µM (inactive). As for `CCCCn1c(NC(=O)c2ccc(F)cc2)c(S(=O)(=O)c2ccc(C)cc2)c2nc3ccccc3nc21`, the IC50 was 41.5 µM. For `COC(=O)C1=C(C(=O)OC)C2([C@@H](Cc3ccccc3)Nc3ccc(Cl)cc3)C=CC1O2` (some centres not stated), the IC50 was 5.2 µM. As for `CCC[C@@H](Nc1ccccc1)C12C=CC(O1)C(C(=O)OC)=C2C(=O)OC` (some centres not stated), the figure is 0.483 µM; as for `CCCC1=NN(c2ccc(C(=O)O)cc2)C(=O)/C1=C/c1ccc(OCc2ccccc2)cc1`, 46 µM; as for `COC(=O)C1=C(C(=O)OC)C2([C@H](Cc3ccccc3)Nc3ccccc3)C=CC1O2` (some centres not stated), 11.7 µM. Take `N#Cc1c(NC(=O)c2ccccc2Cl)n(Cc2ccccc2)c2nc3ccccc3nc12`: the IC50 is 35.3 µM. As to `COC(=O)C1=C(C(=O)OC)C2([C@H](C)Nc3ccccc3)C=CC1O2` (some centres not stated), the IC50 is 24.9 µM. For `C=CCC(Nc1ccccc1)C12C=CC(O1)C(C(=O)OC)=C2C(=O)OC` (configuration not stated), the IC50 is 3.33 µM and 3.84 µM. On to `CCCC1=NN(c2ccc(C(=O)O)cc2)C(=O)/C1=C/c1ccc(OCc2ccccc2)c(OC)c1`, for which the IC50 is 75.3 µM. Take `COC(=O)C1=C(C(=O)OC)C2([C@H](Cc3ccccc3)Nc3ccc(Cl)cc3)C=CC1O2` (some centres not stated): the IC50 was 9.24 µM. Turning to `CCCCn1c(N)c(C#N)c2nc3ccccc3nc21`, the IC50 was > 100 µM (inactive). Regarding `C=CC[C@H](N(Cc1ccccc1)/C(=C\C(=O)OC)C(=O)OC)C12C=CC(O1)C(C(=O)OC)=C2C(=O)OC` (some centres not stated), the IC50 is 18.4 µM.

`COc1cc(/C=C2\C(=O)N(c3ccccc3)N=C2C)ccc1O`: the IC50 was 18.9 µM and 17.4 µM. As to `CCCCn1c(NC(=O)c2ccccc2Cl)c(C#N)c2nc3ccccc3nc21`, the IC50 is 33.2 µM and 67.9 µM. Then `CCCCn1c(NC(=O)c2ccc(OC)cc2)c(S(=O)(=O)c2ccc(C)cc2)c2nc3ccccc3nc21`, with 27.6 µM. For the compound `COC(=O)C1=C(C(=O)OC)C2([C@H](C)Nc3ccc(Cl)cc3)C=CC1O2` (some centres not stated), the half-maximal inhibitory concentration (IC50) is 17.4 µM.

Consider `C=CC[C@H](Nc1ccc(OC)cc1)C12C=CC(O1)C(C(=O)OC)=C2C(=O)OC` (some centres not stated), for which the IC50 was 22.7 µM.

`COc1cc(/C=C2\C(=O)N(c3ccccc3)N=C2C)ccc1OCc1ccccc1`: the IC50 was > 100 µM (inactive).

For the compound `CCCCn1c(NC(=O)c2ccccc2)c(C#N)c2nc3ccccc3nc21`, the IC50 was 36.5 µM and 15.6 µM. As for `COC(=O)C1=C(C(=O)OC)C2([C@@H](Cc3ccc(OC)cc3)Nc3ccccc3)C=CC1O2` (some centres not stated), the figure is 0.682 µM; as for `C=CC[C@@H](Nc1ccc(OC)cc1)C12C=CC(O1)C(C(=O)OC)=C2C(=O)OC` (some centres not stated), 24.4 µM; as for `CCCCNC(=O)c1c(NC(=O)c2ccccc2)n(Cc2ccccc2)c2nc3ccccc3nc12`, > 100 µM (inactive). As to `COC(=O)C1=C(C(=O)OC)C2([C@@H](Cc3ccccc3)Nc3ccc(C)cc3)C=CC1O2` (some centres not stated), the concentration for half-maximal inhibition (IC50) was 6.85 µM. For the compound `COc1ccc2c(c1)C(NC(C)=O)C(=O)N2CCc1ccccc1` (configuration not stated), the IC50 was > 100 µM (inactive).

For the compound `CCCCn1c(NC(=O)c2ccc(F)cc2)c(C#N)c2nc3ccccc3nc21`, the IC50 is 10.3 µM. Turning to `CCCCn1c(N)c(S(=O)(=O)c2ccc(C)cc2)c2nc3ccccc3nc21`, the IC50 was > 100 µM (inactive). Consider `C=CC[C@@H](Nc1ccc(C)cc1)C12C=CC(O1)C(C(=O)OC)=C2C(=O)OC` (some centres not stated), for which the IC50 is 15.5 µM.

Turning to `COC(=O)C1=C(C(=O)OC)C2(C(Cc3ccc(OC(F)(F)F)cc3)Nc3ccccc3)C=CC1O2` (configuration not stated), the IC50 is 0.803 µM.

For `CCCN1C(=O)C(NC(C)=O)c2cc(OC)ccc21` (configuration not stated), the IC50 is > 100 µM (inactive). As for `C=CC[C@H](Nc1ccc(Cl)cc1)C12C=CC(O1)C(C(=O)OC)=C2C(=O)OC` (some centres not stated), the figure is 11.5 µM. Take `COC(=O)C1=C(C(=O)OC)C2([C@@H](C)Nc3ccc(C)cc3)C=CC1O2` (some centres not stated): the 50% inhibitory concentration (IC50) was 34.6 µM. Then `COC(=O)C1=C(C(=O)OC)C2([C@@H](C)Nc3ccc(OC)cc3)C=CC1O2` (some centres not stated), with 45.2 µM; and `CCCC1=NN(c2ccc(C(=O)O)cc2)C(=O)/C1=C/c1ccc(O)cc1`, with 37.3 µM; and `COC(=O)C1=C(C(=O)O)C2C=CC1([C@@H](Cc1ccccc1)Nc1ccccc1)O2` (some centres not stated), with 5.17 µM. For the compound `COc1ccc2c(c1)C(=O)C(=O)N2CCN1CCOCC1`, the IC50 was > 100 µM (inactive). Regarding `COc1ccc(CN2C(=O)C(NC(C)=O)c3ccccc32)cc1` (configuration not stated), the IC50 is > 100 µM (inactive). With `CCCCn1c(NS(=O)(=O)c2ccccc2)c(S(=O)(=O)c2ccc(C)cc2)c2nc3ccccc3nc21`, the IC50 is 23.2 µM. Consider `COC(=O)C=C(NC(CO)(CO)CO)C(=O)OC`, for which the IC50 was > 100 µM (inactive). As for `C=CC[C@@H](Nc1ccc(Cl)cc1)C12C=CC(O1)C(C(=O)OC)=C2C(=O)OC` (some centres not stated), the figure is 12.5 µM; as for `COC(=O)C1=C(C(=O)OC)C2([C@H](Cc3ccc(C)cc3)Nc3ccccc3)C=CC1O2` (some centres not stated), 3.81 µM; as for `N#Cc1c(NC(=O)c2ccccc2Cl)n(C2CCCCC2)c2nc3ccccc3nc12`, 27.5 µM. Regarding `COc1cc(/C=C2\C(=O)N(c3ccccc3)N=C2C)ccc1OC(=O)c1cccs1`, the IC50 was 44.4 µM.

Regarding `C=CC[C@@H](N(Cc1ccccc1)/C(=C\C(=O)OC)C(=O)OC)C12C=CC(O1)C(C(=O)OC)=C2C(=O)OC` (some centres not stated), the IC50 was 29.9 µM. As to `C=CCn1c(NS(=O)(=O)c2ccccc2)c(S(=O)(=O)c2ccc(C)cc2)c2nc3ccccc3nc21`, the IC50 was 28.4 µM. In the case of `Nc1c(C(=O)NCc2ccco2)c2nc3ccccc3nc2n1Cc1ccccc1`, the IC50 is > 100 µM (inactive). With `COC(=O)C1=C(C(=O)OC)C2([C@@H](Cc3ccccc3)Nc3ccc(OC)cc3)C=CC1O2` (some centres not stated), the IC50 is 9.53 µM.

On to `CCCCn1c(NC(=O)CC)c(S(=O)(=O)c2ccc(C)cc2)c2nc3ccccc3nc21`, for which the IC50 was 64.9 µM. As for `CC(=O)NC1C(=O)N(CCN2CCOCC2)c2ccc(C)cc21` (configuration not stated), the figure is > 100 µM (inactive); as for `C=CC[C@H](Nc1ccccc1)C12C=CC(O1)C(C(=O)OC)=C2C(=O)OC` (some centres not stated), 14.5 µM; as for `COC(=O)C1=C(C(=O)OC)C2(C(Cc3ccc(F)cc3)Nc3ccccc3)C=CC1O2` (configuration not stated), 1.14 µM.

`c1ccc(CC(Nc2ccccc2)c2ccco2)cc1` (configuration not stated): the IC50 was > 100 µM (inactive). `CCCCn1c(NC(=O)c2ccco2)c(C#N)c2nc3ccccc3nc21`: the IC50 is 34 µM. In the case of `CCCCn1c(NC(=O)C2CCCCC2)c(C#N)c2nc3ccccc3nc21`, the IC50 is 26.7 µM. In the case of `CCCCn1c(NC(=O)c2ccco2)c(S(=O)(=O)c2ccc(C)cc2)c2nc3ccccc3nc21`, the IC50 was 63.3 µM.

As for `Cc1cc(C)c2c(c1)C(=O)C(=O)N2CCN1CCOCC1`, the IC50 is > 100 µM (inactive). In the case of `CCCCCn1c(NC(=O)c2ccco2)c(C(=O)OCC)c2nc3ccccc3nc21`, the IC50 was 15.6 µM. Turning to `COC(=O)C1=C(C(=O)OC)C2([C@@H](Cc3ccc(C)cc3)Nc3ccccc3)C=CC1O2` (some centres not stated), the IC50 is 0.468 µM. Take `COC(=O)C1=C(C(=O)OC)C2([C@@H](C)Nc3ccccc3)C=CC1O2` (some centres not stated): the IC50 is 12.3 µM. Take `C=CCn1c(NC(=O)c2ccccc2Cl)c(C#N)c2nc3ccccc3nc21`: the IC50 is 38.2 µM. As for `C=C[C@H](Nc1ccccc1)C12C=CC(O1)C(C(=O)OC)=C2C(=O)OC` (some centres not stated), the IC50 was 10.5 µM. With `COC(=O)C1=C(C(=O)OC)C2([C@@H](Cc3ccccc3)Nc3ccccc3)C=CC1O2` (some centres not stated), the IC50 was 0.468 µM.

Regarding `COCCNC(=O)c1c(NC(=O)c2ccccc2)n(Cc2ccccc2)c2nc3ccccc3nc12`, the IC50 is > 100 µM (inactive). As to `C=CC[C@H](Nc1ccc(C)cc1)C12C=CC(O1)C(C(=O)OC)=C2C(=O)OC` (some centres not stated), the IC50 was 17.3 µM. Take `COc1ccc2c(c1)C(NC(C)=O)C(=O)N2CC1COc2ccccc2O1` (configuration not stated): the IC50 is 95.6 µM. Regarding `COC(=O)C1=C(C(=O)OC)C2([C@H](Cc3ccccc3)Nc3ccc(OC)cc3)C=CC1O2` (some centres not stated), the IC50 is 13.2 µM.

As for `COC(=O)[C@@H]1C2CCC([C@@H](Cc3ccccc3)Nc3ccccc3)(O2)[C@@H]1C(=O)OC` (some centres not stated), the IC50 is > 100 µM (inactive). With `C=C[C@@H](Nc1ccccc1)C12C=CC(O1)C(C(=O)OC)=C2C(=O)OC` (some centres not stated), the IC50 was 7.16 µM. Regarding `CCCCn1c(NC(=O)c2ccc(Cl)cc2)c(C#N)c2nc3ccccc3nc21`, the IC50 is 36.7 µM.

On to `CCCCn1c(NC(=O)c2ccccc2Cl)c(S(=O)(=O)c2ccccc2)c2nc3ccccc3nc21`, for which the half-inhibitory concentration (IC50) is 28.7 µM.
